Laboratory results taken from patent US20260138959A1, “QUINAZOLINE DERIVATIVE COMPOUND AND USE THEREOF” (VORONOI INC., priority 2021, published 2026).

Legend:
Ba/F3-c-KIT(D816V) = experiment: Proliferation inhibitory activity on Ba/F3 cell (CellTiter-Glo, 72 hours), c-KIT(D816V); type: cell-based; settings: Mus musculus, BaF3, read-out: Ba/F3 (nM) c-KIT (D816V) (GI50 class)
Description: (§1) Ba/F3-TEL-PDGFRα(WT), Ba/F3-TEL-PDGFβ(WT), Ba/F3-c-KIT(D816V) (Kyinno, #KC-0138), c-KIT V560G/D816V, c-KIT D814Y were seeded at 3×10^3/100 μl/well in a clear bottom white 96-well plate. A culture solution containing compounds of 12 concentrations (0.00001-2 mM) serially diluted in 3 folds and the DMSO control group was added at 0.5 μl/well each to a final concentration of 0.00005-10 μM, and then incubated in a CO2 incubator at 37° C. for 72 hours. After 72 hours, the plate treated with the compound was taken out, CellTiter-Glo® Assay (Promega) solution was treated with 100 μl/well, followed by mixing well. After mixing well for about 10 minutes at room temperature, […] was measured using a microplate reader. The data were presented as percentages in proportion to treated cells based on the vehicle, GI50 (nM) values were calculated using GraphPad Prism 8.3.0 (GraphPad software Inc., San Diego).
(§2) The inhibitory activities of Ba/F3 expressing PDGFR-α, PDGFR-β, c-KIT(D816V), c-KIT V560G/D816V, and c-KIT D814Y measured as described above were measured and shown in Table 7 below (A: GI50≤200 nM; B: 200 nM<GI50≤500 nM; C: GI50>500 nM).

c-KIT V560G/D816V = experiment: Proliferation inhibitory activity on Ba/F3 cell (CellTiter-Glo, 72 hours), c-KIT V560G/D816V; type: cell-based; settings: Mus musculus, BaF3, c-KIT V560G/D816V cells, read-out: Cell (nM) c-KIT V560G/D816V (GI50 class)
Description: as §1, §2

Row | Compound | GI50 (Ba/F3-c-KIT(D816V)) | GI50 (c-KIT V560G/D816V)
1 | COc1cc2c(-c3ccc(NC(=O)Cc4ccc(C(F)(F)F)cc4)cc3)ncnc2cc1OCCCN1CC2(C1)CN(C(=O)OC(C)(C)C)C2 [Example 19] | ≤ 200 nM | 
2 | COc1cc2c(-c3ccc(NC(=O)Cc4ccc(C(F)(F)F)cc4)cc3)ncnc2cc1OCCCN1CC2(CNC2)C1 [Example 20, N-(4-(7-(3-(2,6-diazaspiro[3.3]heptane-2-yl)propoxy)-6-methoxyquinazolin-4-yl)phenyl)-2-(4-(trifluoromethyl)phenyl)acetamide] | > 500 nM | 
3 | CCN1CC2(C1)CN(CCCOc1cc3ncnc(-c4ccc(NC(=O)Cc5ccc(C(F)(F)F)cc5)cc4)c3cc1OC)C2 [Example 21, N-(4-(7-(3-(6-ethyl-2,6-diazaspiro[3.3]heptane-2-yl)propoxy)-6-methoxyquinazolin-4-yl)phenyl)-2-(4-(trifluoromethyl)phenyl)acetamide] | ≤ 200 nM | 
4 | COc1cc2c(-c3ccc(NC(=O)Cc4ccc(C(F)(F)F)cc4)cc3)ncnc2cc1OCCCNc1cnn(C)c1 [Example 26, N-(4-(6-methoxy-7-(3-((1-methyl-1H-pyrazol-4-yl)amino)propoxy)quinazolin-4-yl)phenyl)-2-(4-(trifluoromethyl)phenyl)acetamide] | ≤ 200 nM | 
5 | COc1cc2c(-c3ccc(NC(=O)C(C)(C)c4ccc(F)cc4)cc3)ncnc2cc1OCC1CCNCC1 [Example 88, 2-(4-fluorophenyl)-N-(4-(6-methoxy-7-(piperidin-4-ylmethoxy)quinazolin-4-yl)phenyl)-2-methylpropanamide] |  | 200 to 500 nM
6 | COc1cc2c(-c3ccc(NC(=O)C4(c5ccc(F)cc5)CC4)cc3)ncnc2cc1OCC1CCNCC1 [Example 91, 1-(4-fluorophenyl)-N-(4-(6-methoxy-7-(piperidin-4-ylmethoxy)quinazolin-4-yl)phenyl)cyclopropane-1-carboxamide] |  | 200 to 500 nM
7 | COCCN1CCC(COc2cc3ncnc(-c4ccc(NC(=O)C5(c6ccc(F)cc6)CC5)cc4)c3cc2OC)CC1 [Example 92, 1-(4-fluorophenyl)-N-(4-(6-methoxy-7-((1-(2-methoxyethyl)piperidin-4-yl)methoxy)quinazolin-4-yl)phenyl)cyclopropane-1-carboxamide] |  | 200 to 500 nM
8 | CCN1CCC(COc2cc3ncnc(-c4ccc(NC(=O)C5(c6ccc(F)cc6)CC5)cc4)c3cc2OC)CC1 [Example 93, N-(4-(7-((1-ethylpiperidin-4-yl)methoxy)-6-methoxyquinazolin-4-yl)phenyl)-1-(4-fluorophenyl)cyclopropane-1-carboxamide] |  | 200 to 500 nM
9 | COCCN1CCC(COc2cc3ncnc(-c4ccc(NC(=O)Cn5cc(C(C)C)nn5)cc4)c3cc2OC)CC1 [Example 94, 2-(4-isopropyl-1H-1,2,3-triazole-1-yl)-N-(4-(6-methoxy-7-((1-(2-methoxyethyl)piperidin-4-yl)methoxy)quinazolin-4-yl)phenyl)acetamide] |  | > 500 nM
10 | COCCN1CCC(COc2cc3ncnc(-c4ccc(NC(=O)Cn5cc(C(C)(C)C)nn5)cc4)c3cc2OC)CC1 [Example 95, 2-(4-(tert-butyl)-1H-1,2,3-triazole-1-yl)-N-(4-(6-methoxy-7-((1-(2-methoxyethyl)piperidin-4-yl)methoxy)quinazolin-4-yl)phenyl)acetamide] |  | > 500 nM
11 | COc1cc2c(-c3ccc(NC(=O)Cn4cc(C(C)C)nn4)cc3)ncnc2cc1OCC1CCN(C)CC1 [Example 105, 2-(4-isopropyl-1H-1,2,3-triazole-1-yl)-N-(4-(6-methoxy-7-((1-methylpiperidin-4-yl)methoxy)quinazolin-4-yl)phenyl)acetamide] |  | > 500 nM
12 | COc1cc2c(-c3ccc(NC(=O)Cn4cc(C(C)(C)C)nn4)cc3)ncnc2cc1OCC1CCN(C)CC1 [Example 106, 2-(4-(tert-butyl)-1H-1,2,3-triazole-1-yl)-N-(4-(6-methoxy-7-((1-methylpiperidin-4-yl)methoxy)quinazolin-4-yl)phenyl)acetamide] |  | > 500 nM
13 | CCN1CCCC(COc2cc3ncnc(-c4ccc(NC(=O)Cn5cc(C(C)C)nn5)cc4)c3cc2OC)C1 (stereo not shown) [Example 111, N-(4-(7-((1-ethylpiperidin-3-yl)methoxy)-6-methoxyquinazolin-4-yl)phenyl)-2-(4-isopropyl-1H-1,2,3-triazole-1-yl)acetamide] |  | > 500 nM
14 | CCN1CCCC(COc2cc3ncnc(-c4ccc(NC(=O)Cn5cc(C(C)(C)C)nn5)cc4)c3cc2OC)C1 (stereo not shown) [Example 112, 2-(4-(tert-butyl)-1H-1,2,3-triazole-1-yl)-N-(4-(7-((1-ethylpiperidin-3-yl)methoxy)-6-methoxyquinazolin-4-yl)phenyl)acetamide] |  | > 500 nM
15 | COCCN1CCC(COc2cc3ncnc(-c4ccc(NC(=O)CCCc5ccccc5)cc4)c3cc2OC)CC1 [Example 114, N-(4-(6-methoxy-7-((1-(2-methoxyethyl)piperidin-4-yl)methoxy)quinazolin-4-yl)phenyl)-4-phenylbutanamide] |  | 200 to 500 nM
16 | COc1cc2c(-c3ccc(NC(=O)Cn4cc(C(C)(C)C)nn4)cc3)ncnc2cc1OCC1CCN(C(C)C)CC1 [Example 119, 2-(4-(tert-butyl)-1H-1,2,3-triazole-1-yl)-N-(4-(7-((1-isopropylpiperidin-4-yl)methoxy)-6-methoxyquinazolin-4-yl)phenyl)acetamide] |  | > 500 nM
17 | COc1cc2c(-c3ccc(NC(=O)Cn4cc(C(C)C)nn4)cc3)ncnc2cc1OCC1CCN(C(C)C)CC1 [Example 120, 2-(4-isopropyl-1H-1,2,3-triazole-1-yl)-N-(4-(7-((1-isopropylpiperidin-4-yl)methoxy)-6-methoxyquinazolin-4-yl)phenyl)acetamide] |  | > 500 nM

Now from value to compound:

Row | GI50 (Ba/F3-c-KIT(D816V)) | GI50 (c-KIT V560G/D816V) | Compound
18 | > 500 nM |  | COc1cc2c(-c3ccc(NC(=O)Cc4ccc(C(F)(F)F)cc4)cc3)ncnc2cc1OCC1CCCN(C(=O)OC(C)(C)C)C1 (stereo not shown) [Example 14, tert-butyl 3-(((6-methoxy-4-(4-(2-(4-(trifluoromethyl)phenyl)acetamido)phenyl)quinazolin-7-yl)oxy)methyl)piperidin-1-carboxylate]
19 |  | > 500 nM | COc1cc2c(-c3ccc(NC(=O)Cc4ccc(C(F)(F)F)cc4)cc3)ncnc2cc1OCC1CCN(C(=O)OC(C)(C)C)CC1 [Example 15, tert-butyl 4-(((6-methoxy-4-(4-(2-(4-(trifluoromethyl)phenyl)acetamido)phenyl)quinazolin-7-yl)oxy)methyl)piperidin-1-carboxylate]
20 | ≤ 200 nM |  | COc1cc2c(-c3ccc(NC(=O)Cc4ccc(C(F)(F)F)cc4)cc3)ncnc2cc1OCC1CCCNC1 (stereo not shown) [Example 16, N-(4-(6-methoxy-7-(piperidin-3-ylmethoxy)quinazolin-4-yl)phenyl)-2-(4-(trifluoromethyl)phenyl)acetamide]
21 |  | ≤ 200 nM | COc1cc2c(-c3ccc(NC(=O)Cc4ccc(C(F)(F)F)cc4)cc3)ncnc2cc1OCC1CCNCC1 [Example 17, N-(4-(6-methoxy-7-(piperidin-4-ylmethoxy)quinazolin-4-yl)phenyl)-2-(4-(trifluoromethyl)phenyl)acetamide]
22 | ≤ 200 nM |  | COc1cc2c(-c3ccc(NC(=O)Cc4ccc(C(F)(F)F)cc4)cc3)ncnc2cc1OC[C@@H]1CCNC1 [Example 38, (R)-N-(4-(6-methoxy-7-(pyrrolidin-3-ylmethoxy)quinazolin-4-yl)phenyl)-2-(4-(trifluoromethyl)phenyl)acetamide]
23 |  | ≤ 200 nM | COc1cc2c(-c3ccc(NC(=O)Cc4ccc(C(F)(F)F)cc4)cc3)ncnc2cc1OCC1CCN(C(C)=O)CC1 [Example 102, N-(4-(7-((1-acetylpiperidin-4-yl)methoxy)-6-methoxyquinazolin-4-yl)phenyl)-2-(4-(trifluoromethyl)phenyl)acetamide]
24 |  | 200 to 500 nM | COc1ccc(CC(=O)Nc2ccc(-c3ncnc4cc(OCC5CCN(C(C)=O)CC5)c(OC)cc34)cc2)cn1 [Example 103, N-(4-(7-((1-acetylpiperidin-4-yl)methoxy)-6-methoxyquinazolin-4-yl)phenyl)-2-(6-methoxypyridin-3-yl)acetamide]
25 |  | 200 to 500 nM | COc1cc2c(-c3ccc(NC(=O)Cc4ccc(C(F)(F)F)nc4)cc3)ncnc2cc1OCC1CCN(C(C)=O)CC1 [Example 104, N-(4-(7-((1-acetylpiperidin-4-yl)methoxy)-6-methoxyquinazolin-4-yl)phenyl)-2-(6-(trifluoromethyl)pyridin-3-yl)acetamide]
26 |  | > 500 nM | COc1cc2c(-c3ccc(NC(=O)Cn4cc(C(C)C)nn4)cc3)ncnc2cc1OCC1CCN(C(C)=O)CC1 [Example 107, N-(4-(7-((1-acetylpiperidin-4-yl)methoxy)-6-methoxyquinazolin-4-yl)phenyl)-2-(4-isopropyl-1H-1,2,3-triazole-1-yl)acetamide]
27 |  | > 500 nM | COc1cc2c(-c3ccc(NC(=O)Cn4cc(C(C)(C)C)nn4)cc3)ncnc2cc1OCC1CCN(C(C)=O)CC1 [Example 108, N-(4-(7-((1-acetylpiperidin-4-yl)methoxy)-6-methoxyquinazolin-4-yl)phenyl)-2-(4-(tert-butyl)-1H-1,2,3-triazole-1-yl)acetamide]
28 |  | ≤ 200 nM | COCCOc1cc2ncnc(-c3ccc(NC(=O)Cc4ccc(C(F)(F)F)cc4)cc3)c2cc1OC [Example 117, N-(4-(6-methoxy-7-(2-methoxyethoxy)quinazolin-4-yl)phenyl)-2-(4-(trifluoromethyl)phenyl)acetamide]
